# Assay results taken from patent US20120316199A1, “COMPOSITIONS AND METHODS FOR TREATING, CONTROLLING, REDUCING, OR AMELIORATING INFLAMMATORY PAIN” (priority 2011, published 2012).
# Where “and” joins values, the source holds several entries; their conditions need not be identical. Equal values may be shown once.
# Assays:
# pupillary diameter = test: Pupillary diameter measurement, rabbit paracentesis model; format: in vivo, Rabbit (New Zealand); conditions: for Pupillary diameter T2: −5 min: 5 min before the first paracentesis; for Pupillary diameter T2: −5 min / Pupillary diameter T3: +115 min / Pupillary diameter T1: −180 min: raw data per eye, listed as BOL; for Pupillary diameter T3: +115 min: 5 min before the second paracentesis; for Pupillary diameter T1: −180 min: basal; for Mean (mm) Δ(T3 − T1) of pupillary diameter: group mean, n=8 eyes
# [1] = system: PGE2 in the aqueous humor; test: Prostaglandin E2 (PGE2) measurement in aqueous humor, rabbit paracentesis model; format: in vivo, Rabbit (New Zealand); conditions: for PGE2 in aqueous humor, statistical significance versus CTR: p<0.05; for PGE2 level in aqueous humor, Mean: second paracentesis, group mean
# Description: Each rabbit was placed in a restraint device and tagged with the alphanumeric code. The formulations were instilled (50 μl) into the conjunctival sac of both eyes 180, 120, 90 and 30 min before the first paracentesis; then 15, 30, 90 min after the first paracentesis. To perform the first paracentesis the animals were anaesthetized by intravenous injection of 5 mg/kg Zoletil® (Virbac; 2.5 mg/kg tiletamine HCl and 2.5 mg/kg zolazepam HCl) and one drop of local anesthetic (Novesina®, Novartis) was administered to the eye. Anterior chamber paracentesis was performed with a 26 G needle attached to a tuberculin syringe; the needle was introduced into the anterior chamber through the cornea, taking care not to damage the tissues. Two hours after the first paracentesis, the animals were sacrificed with 0.4 ml Tanax® (Intervet International B.V.) and the second paracentesis was performed. About 100 μl of aqueous humor were removed at the second paracentesis. Aqueous humor was immediately split in four aliquots and stored at −80° C. until analysis. Then both eyes were enucleated and the iris-ciliary body was carefully excised, placed in polypropylene tubes, and stored at −80° C. until analysis.
# For the quantitative determination of PGE2 in the aqueous humor we used the PGE2 Immunoassay kit (R&D Systems; Cat. No. KGE004; Lot. No. 240010). Eleven microliters or 16 μl of aqueous humor were diluted to 110 μl or 160 μl with the calibrator diluent solution provided with the kit. One hundred microliters of samples and of standards were load into a 96-well plate and recorded in a plate layout. Samples were treated following the assay procedure described in the kit. A microplate reader (GDV, Italy; model DV 990 B/V6) set at 450 nm (wavelength correction at 540 nm) was used for making the calibration and analyzing the samples.
# Pupillary diameter, PGE2, protein, PMN, and MPO were expressed as mean±SEM. Statistical analysis was performed using one way ANOVA followed by a Newman-Keuls post hoc test. Clinical score was expressed as % of eyes and the statistical analysis was performed using Kruskal-Wallis followed by a Dunn post hoc test. P<0.05 was considered statistically significant in both cases. Prism 4 software (GraphPad Software, Inc.) was used for the analysis and graphs.
# [2] = system: anterior chamber cells and flare following cataract surgery; test: Clinical study after cataract surgery: resolution of anterior chamber (AC) cells and flare; format: in vivo, human; conditions: 2% QID, 3% QD, 3% BID, and 3% QID
# Source text: There were 8 treatment groups in this study, consisting of three drug doses, vehicle and three dosing frequencies (see also Table 4-1): • Group A: 1% BOL-303242-X ophthalmic suspension, two times per day (BID) • Group B: 2% BOL-303242-X ophthalmic suspension, one time per day (QD) • Group C: 2% BOL-303242-X ophthalmic suspension, BID • Group D: 2% BOL-303242-X ophthalmic suspension, four times per day (QID) • Group E: 3% BOL-303242-X ophthalmic suspension, QD • Group F: 3% BOL-303242-X ophthalmic suspension, BID • Group G: 3% BOL-303242-X ophthalmic suspension, QID • Group H: Vehicle for BOL-303242-X (divided equally into QID, BID, and QD)
# Subjects self-administered study drug, instilling 1 to 2 drops of study drug into the study eye: QID at approximately 4 hour intervals, BID at approximately 12 hour intervals, or QD once in the morning, for 14 days. The initial dose occurred in the clinic at Visit 3 and the final dose was on the day before Visit 6 (postoperative Day 15±1 day). Subjects were examined and evaluated according to the following schedule:
# Visit 1 (screening), Visit 2 (cataract surgery), Visit 3 (postoperative Day 1), Visit 4 (postoperative Day 3±1 day), Visit 5 (postoperative Day 8±1 day), Visit 6 (postoperative Day 15±1 day), Visit 7 (postoperative Day 18±1 day). […]
# [3] = system: New Zealand White rabbits; test: Mortality/morbidity in New Zealand White rabbits, topical dosing four times daily; format: in vivo; conditions: for Mortality (rabbits that died or were euthanized between Days 11 and 33): right eye four times daily, Days 1-31
# Description: On Days 1-31, animals received daily topical doses of the appropriate test article into the right eye. Animals were dosed four times per day, with doses administered 2 hours apart. Doses were administered using a calibrated 50-μL pipette. The eyelids were held close for 10 seconds immediately following dosing. The time of each dose administration was recorded.
# Animals determined to be moribund were euthanized with an intravenous injection of commercial euthanasia solution.
# [4] = system: anterior-segment inflammation after anterior chamber paracentesis; test: Rabbit paracentesis model, overall anti-inflammatory activity; format: in vivo, Rabbit (New Zealand)
# [5] = Group D, 1 mg/g (0.05 mg/dose) 4 x daily, individual rabbit
compound,measurement,setting,value
"Cc1ccc2c(NC[C@](O)(CC(C)(C)c3cc(F)cc4c3OCC4)C(F)(F)F)cccc2n1 [BOL-303242-X, mapracorat]",Pupillary diameter T2: −5 min,pupillary diameter; 0.1% formulation,6.5 mm and 7.0 mm and 7.5 mm
same,Pupillary diameter T3: +115 min,pupillary diameter; 0.1% formulation,5.0 mm and 6.0 mm and 6.5 mm and 5.5 mm
same,Pupillary diameter T1: −180 min,pupillary diameter; 0.1% formulation,6.5 mm and 7.0 mm and 7.5 mm
same,Mean (mm) Δ(T3 − T1) of pupillary diameter,pupillary diameter; 0.1% formulation,−1.1 mm
same,Pupillary diameter T2: −5 min,pupillary diameter; 0.5% formulation,8.0 mm and 7.0 mm and 7.5 mm
same,Pupillary diameter T3: +115 min,pupillary diameter; 0.5% formulation,6.5 mm and 6.0 mm and 7.0 mm
same,Pupillary diameter T1: −180 min,pupillary diameter; 0.5% formulation,8.0 mm and 7.0 mm and 7.5 mm
same,Mean (mm) Δ(T3 − T1) of pupillary diameter,pupillary diameter; 0.5% formulation,−1.0 mm
same,Pupillary diameter T2: −5 min,pupillary diameter; 1% formulation,6.0 mm and 6.5 mm and 7.0 mm
same,Pupillary diameter T3: +115 min,pupillary diameter; 1% formulation,5.5 mm and 5.0 mm and 6.0 mm
same,Pupillary diameter T1: −180 min,pupillary diameter; 1% formulation,6.0 mm and 6.5 mm
same,Mean (mm) Δ(T3 − T1) of pupillary diameter,pupillary diameter; 1% formulation,−0.9 mm
same,"PGE2 in aqueous humor, statistical significance versus CTR",[1]; 0.1% formulation,statistically significant versus CTR
same,"PGE2 level in aqueous humor, Mean",[1]; 0.1% formulation,1.452 ng/mL
same,"PGE2 in aqueous humor, statistical significance versus CTR",[1]; 0.5% formulation,statistically significant versus CTR
same,"PGE2 level in aqueous humor, Mean",[1]; 0.5% formulation,1.384 ng/mL
same,"PGE2 level in aqueous humor, Mean",[1]; 1% formulation,2.168 ng/mL
same,improvements in AC cells and Grade 0 pain at Visit 5 (postoperative Day 8),[2],statistically significant improvements
same,Mortality (rabbits that died or were euthanized between Days 11 and 33),[3]; 0.05 mg/dose (0.1% dexamethasone suspension or 1 mg/g BOL-303242-X),one of ten
same,Mortality (rabbits that died or were euthanized between Days 11 and 33),[3]; 5 mg/g suspension ([…]),two of ten
same,Morbidity noted in a surviving rabbit,"[3]; 10 mg/g (0.5 mg/dose), one surviving rabbit (Group B, No. 3048)",diarrhea on Day 18
same,Mortality (rabbits that died or were euthanized between Days 11 and 33),[3]; 10 mg/g suspension (0.5 mg/dose),one of ten
same,Mortality rate per dose level,"[3]; 0.05, 0.25, or 0.5 mg/dose four times daily up to 31 days",1-2 deaths per 10 rabbits
same,Day of Death (day euthanized or found dead),"[3]; Group B, 10 mg/g (0.5 mg/dose) 4 x daily, individual rabbit",11
same,Day of Death (day euthanized or found dead),[3]; [5],29
same,Recorded Notes on death,[3]; [5],Found dead.
same,Activity in the rabbit paracentesis model,"[4]; 0.1%, 0.5% and 1% topical formulations, preliminary conclusion",active in this model
same,Anti-inflammatory effectiveness compared with steroid and NSAID positive controls,[4]; rabbit paracentesis model,as effective an anti-inflammatory drug as some of the commonly accepted prior-art steroids or NSAID
